Series [1] in a line: Luminescence Cell-Based Dose Response HTS to Identify Activators of Luciferase Translation or Activity in H4 […] Cells. [Related pubchem assays: 1829 (Project Summary), 1814 (Primary HTS)]. Format: functional.
A further series concerns H4. The series can be described thus: Luminescence Cell-Based Dose Response HTS to Identify Activators of 5'UTR Stem-Loop Driven Prion Protein mRNA Translation in H4 Neuroglioblastoma Cells. [Related pubchem assays: 1829 (Project Summary), 1814 (Primary HTS)]. Format: functional. The settings on record: Homo sapiens.
Series [2] in a line: Luminescence Cell-Based Dose Confirmation HTS to Identify Activators of 5'UTR Stem-Loop Driven Alpha-Synuclein mRNA Translation in H4 Neuroglioblastoma Cells. [Related pubchem assays: 1829 (Project Summary), 1814 (Primary HTS)]. The series is classed as functional.
The test system of the next series is H9c2. The series can be described thus: cells. The series is classed as functional, cell-based. The note with it: Rattus norvegicus, H9c2, Myocardium.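 Further: confirmatory concentration-response retest of ultra-high-throughput screening hits for modulation of myocardial damage; cell death induced by hydrogen peroxide oxidative stress; compound pretreatment for 60 min then peroxide exposure for 2 h; potency is for protecting the cells against peroxide damage rather than for killing them.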
The target in another series is Cytochrome P450 2C19 (Homo sapiens, UniProt P33261). In words: Cytochrome panel assay with activity outcomes. Panel member name: p450-cyp2c19 Compounds with AC50 equal or less than 10 uM are considered active. The series is classed as functional.
The target of a further series is Cytochrome P450 3A4 (Homo sapiens, UniProt P08684).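 Further: CYP3A4 tested as one member of a cytochrome P450 panel screen.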
The next series deals with T1, Cytochrome P450 1A2 (Homo sapiens, UniProt P05177).
T1 sequence (P05177 whole entry): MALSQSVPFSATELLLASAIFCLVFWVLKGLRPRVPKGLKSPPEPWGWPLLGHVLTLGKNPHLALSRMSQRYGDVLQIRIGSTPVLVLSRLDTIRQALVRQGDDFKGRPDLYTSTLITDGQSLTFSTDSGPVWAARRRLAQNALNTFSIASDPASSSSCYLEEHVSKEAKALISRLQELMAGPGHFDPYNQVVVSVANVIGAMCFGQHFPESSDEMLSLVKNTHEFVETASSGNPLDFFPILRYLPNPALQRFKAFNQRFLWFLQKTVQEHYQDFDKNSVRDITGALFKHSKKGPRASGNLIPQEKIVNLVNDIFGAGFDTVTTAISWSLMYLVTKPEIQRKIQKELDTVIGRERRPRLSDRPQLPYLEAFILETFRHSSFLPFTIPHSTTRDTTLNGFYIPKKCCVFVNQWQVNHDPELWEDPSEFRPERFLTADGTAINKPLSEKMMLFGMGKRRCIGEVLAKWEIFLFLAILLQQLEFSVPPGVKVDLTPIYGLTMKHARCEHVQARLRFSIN

The target of series [3] is T2, Heat shock factor protein 1 (Mus musculus, UniProt P38532).
T2 sequence (P38532 whole entry): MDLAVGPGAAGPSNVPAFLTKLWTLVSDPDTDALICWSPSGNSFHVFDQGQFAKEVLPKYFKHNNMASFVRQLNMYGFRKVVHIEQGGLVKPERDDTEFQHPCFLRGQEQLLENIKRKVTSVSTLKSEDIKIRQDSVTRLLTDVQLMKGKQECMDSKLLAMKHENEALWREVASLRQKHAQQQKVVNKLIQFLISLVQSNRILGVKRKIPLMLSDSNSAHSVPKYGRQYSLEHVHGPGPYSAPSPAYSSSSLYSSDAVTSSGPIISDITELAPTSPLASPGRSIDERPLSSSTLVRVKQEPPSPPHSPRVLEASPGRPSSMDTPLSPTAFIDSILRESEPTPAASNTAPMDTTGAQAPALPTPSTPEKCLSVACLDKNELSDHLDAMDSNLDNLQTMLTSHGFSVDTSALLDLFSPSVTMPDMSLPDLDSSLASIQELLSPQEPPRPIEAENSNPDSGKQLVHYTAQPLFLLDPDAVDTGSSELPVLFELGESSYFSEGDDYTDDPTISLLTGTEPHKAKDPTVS
The series can be described thus: enhancement of HSF1-driven luciferase signal – cell-based, NIH3T3, luminescence, dose retest, confirmation (AID 435004).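 Further: stress induced by proteasome inhibitor MG132 added 30 min after compound; luciferase reporter driven by HSF1 response element in NIH3T3 cells; actives raise luminescence as potentiators of the MG132 stress response.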 The series is classed as functional.

Calls of active or inactive are those of the source.

Cytochrome P450 3A4, sequence (P08684 whole entry): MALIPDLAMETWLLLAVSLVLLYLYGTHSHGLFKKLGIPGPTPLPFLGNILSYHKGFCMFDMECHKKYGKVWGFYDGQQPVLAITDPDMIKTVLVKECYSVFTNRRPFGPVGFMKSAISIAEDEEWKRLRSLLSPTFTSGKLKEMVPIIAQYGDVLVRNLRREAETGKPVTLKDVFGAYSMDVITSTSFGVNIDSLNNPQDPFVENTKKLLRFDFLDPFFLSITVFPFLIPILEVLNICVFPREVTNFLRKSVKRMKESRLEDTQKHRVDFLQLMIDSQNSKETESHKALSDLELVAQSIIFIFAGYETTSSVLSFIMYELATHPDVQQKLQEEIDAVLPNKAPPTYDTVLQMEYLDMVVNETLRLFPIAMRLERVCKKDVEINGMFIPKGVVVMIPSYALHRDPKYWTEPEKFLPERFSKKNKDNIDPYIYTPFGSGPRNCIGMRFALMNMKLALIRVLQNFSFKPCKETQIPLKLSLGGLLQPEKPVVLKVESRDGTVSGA
Cytochrome P450 2C19, sequence (P33261 whole entry): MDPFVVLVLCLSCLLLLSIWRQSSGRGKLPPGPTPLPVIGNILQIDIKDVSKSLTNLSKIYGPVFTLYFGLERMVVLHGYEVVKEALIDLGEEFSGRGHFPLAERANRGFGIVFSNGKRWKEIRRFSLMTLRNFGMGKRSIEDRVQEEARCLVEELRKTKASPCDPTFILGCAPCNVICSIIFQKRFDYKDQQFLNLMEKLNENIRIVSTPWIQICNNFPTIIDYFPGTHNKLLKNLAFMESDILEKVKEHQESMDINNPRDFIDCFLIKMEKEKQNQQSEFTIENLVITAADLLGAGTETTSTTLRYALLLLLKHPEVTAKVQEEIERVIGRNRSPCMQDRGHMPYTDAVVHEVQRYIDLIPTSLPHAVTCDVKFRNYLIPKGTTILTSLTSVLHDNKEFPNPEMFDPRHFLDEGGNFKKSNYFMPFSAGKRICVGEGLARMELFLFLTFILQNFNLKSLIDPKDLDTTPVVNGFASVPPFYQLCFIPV

What is called EC50 is the midpoint of the concentration-response curve. As for `O=[N+]([O-])c1ccc(N/N=C2\CC3CC=CC23)cc1` (stereo unspecified), the EC50 in series [1] is 13.2 µM (active); with H4 it was 24.3 µM (active); in series [2], 15.2 µM (active).

With `CC1SCC(=NOCc2ccccc2)CS1` (stereo unspecified), the results for the EC50 (in series [1]; with H4; in series [2]) were 17.7 µM (active), 18.2 µM (active) and 14.5 µM (active), respectively.

What is called IC50 is the midpoint of a concentration-inhibition curve. As for `O=C1[C@H]2[C@@H](c3ccc(C(F)(F)F)cc3)N[C@]3(CCCN(Cc4ccc(F)cc4)C3=O)[C@H]2C(=O)N1Cc1ccccc1`, the IC50 with H9c2 is > 79 µM (inactive).

The term AC50 denotes the concentration at which the activity in the assay is half-maximal. Turning to `O=C1/C(=C\c2ccc(Br)o2)S/C(=N/c2ccccc2)N1c1ccccc1`, the AC50 at Cytochrome P450 2C19 (read-out: AC50) is 7.94 µM (inconclusive). As for `O=C(Nc1ccccc1)N[C@H]1C[C@H](C(=O)O)Nc2cc(Cl)cc(Cl)c21`, the AC50 is 25.1 µM (inconclusive) on Cytochrome P450 2C19 (read-out: AC50), 25.1 µM (inconclusive) on Cytochrome P450 3A4 and 39.8 µM (inconclusive) on Cytochrome P450 1A2. As to `O=S(=O)(N/N=C\c1cccn1-c1ccccc1)c1ccc2ccccc2c1`, the AC50 at Cytochrome P450 2C19 (read-out: AC50) is 0.794 µM (inconclusive).

Consider `N[C@@H](CSS(=O)(=O)O)C(=O)O`, for which the figures for the AC50 on Cytochrome P450 2C19 (read-out: AC50) and on Cytochrome P450 1A2 were 7.94 µM (inconclusive) and 39.8 µM (inconclusive), respectively. `COc1ccc(OC)c(C(=O)CSc2nnc(Cc3cccs3)n2CCc2ccccc2)c1`: the results for the AC50 at Cytochrome P450 3A4 and on Cytochrome P450 1A2 were 39.8 µM (inconclusive) and 7.08 µM (inconclusive), respectively. With `CC(OC(=O)CCc1nc(O)c2ccccc2n1)C(=O)Nc1ccc2c(c1)OCO2` (stereo unspecified), the IC50 with H9c2 is 39.1 µM (inactive). For `Cc1nn(CCOc2ccccc2)c(=O)n1-c1c(F)cccc1F`, the EC50 in series [1] is > 120 µM (not active); with H4 it was 32.2 µM (active); in series [2] it was 15.3 µM (active).

For the compound `Cc1cc(SCC(=O)NCCN2C(=O)CSC2=O)nc2ccccc12`, the EC50 (in series [1]; in the series with H4; in series [2]) was > 120 µM (not active) in each case. As to `CCN(CC)CCNC(=O)CCc1nnc(O)c2ccccc12`, the IC50 in the series with H9c2 is > 79 µM (inactive).

For `COc1ccc(-c2cn3c(C)c(C(=O)NC(C)(C)C)sc3n2)cc1`, the concentration giving a half-maximal response (EC50) in series [1] is 31.5 µM (active); in the series on H4, > 120 µM (not active); in series [2], 1.06 µM (active). Consider `O=[N+]([O-])c1cccc(/C=N/N2CCN(Cc3ccccc3)CC2)c1`, for which the EC50 in series [1] was 20.8 µM (active); with H4, 20.2 µM (active); in series [2] it was 14.7 µM (active). For the compound `CC[N+](C)(CC)CCN1C(=O)c2ccccc2S1(=O)=O`, the AC50 entry at Cytochrome P450 2C19 is “inconclusive”. On to `O=C(CSc1nn(-c2ccc(F)cc2)c(=S)s1)N1CCN(C(=O)c2ccco2)CC1`, for which the EC50 in series [3] was > 260 µM (inactive).

Take `[O-][n+]1c(CN2CCCCC2)nc2cccc3c2c1-c1ccccc1-3`: at Cytochrome P450 3A4, the AC50 is 3.16 µM (inconclusive). For `COc1ccc(C=CC(=O)c2ccc3cc(OC)c(OC)cc3c2)cc1OC`, the IC50 with H9c2 is > 79 µM (inactive). Regarding `Cc1cc(NC(=O)NC(=O)c2ccccc2)no1`, the EC50 in series [1] is 7.68 µM (active); in the series with H4 it was 42.3 µM (inconclusive); in series [2] it was 3.66 µM (active). Turning to `Cn1c(C(=O)NCc2cccs2)cc2c(=O)n(C)c3ccccc3c21`, the IC50 in the series with H9c2 was > 79 µM (inactive). Turning to `CC(C(=O)NC1CCCC1)N(C(=O)Cn1nnc(-c2ccc(F)cc2)n1)c1ccccc1F` (stereo unspecified), in the series on H9c2, the IC50 was > 79 µM (inactive). For `NNC(=O)CNc1cccc(Br)c1`, the half-maximal activity concentration (AC50) at Cytochrome P450 3A4 is 2.51 µM (inconclusive).

As for `CN(CC(=O)Nc1ccccc1Br)C(=O)Cn1[nH]c(=O)c2ccccc2c1=O`, the IC50 in the series with H9c2 is > 79 µM (inactive). Take `CCn1ncc2c1C(=O)NC1c3ccccc3C(=O)N21` (stereo unspecified): the IC50 with H9c2 is 32 µM (inactive). On the same count and under the same terms, under `COc1ccccc1NC(=O)COc1ccc(/C=N/NC(=O)c2cccnc2)cc1` stands 17.2 µM (active). Consider `CC(C)(C)c1ccc(C(=O)NC(=S)Nn2cnnc2)cc1`, for which the EC50 in series [1] is 69.9 µM (active); in the series with H4 it was 30.1 µM (active); in series [2], > 120 µM (not active). On to `CC(OC(=O)/C=C/c1ccc2ccccc2n1)C(=O)NCc1ccccc1` (stereo unspecified), for which, in series [3], the EC50 was 13.3 µM (active). As to `COC(=O)c1ccccc1S(=O)(=O)N(Cc1ccco1)Cc1cc2cc(OC)ccc2nc1O`, in the series with H9c2, the IC50 was > 79 µM (inactive). Turning to `COc1cc(/C=N/N2C(=O)c3ccccc3NC2(C)c2cccc([N+](=O)[O-])c2)cc(Br)c1O` (stereo unspecified), the EC50 in series [3] is 34.1 µM (active).

Consider `C[C@]12CC[C@H](O)C[C@@H]1CC[C@H]1[C@H]2CC[C@]2(C)[C@H](C(=O)CO)CC[C@@H]12`, for which the AC50 on Cytochrome P450 3A4 is 1 µM (inconclusive). `O=C(/C=C/c1ccc(Cl)cc1)NCCN1CCOCC1`: on Cytochrome P450 2C19, the AC50 entry is given as “inconclusive”. As to `CCOc1ccc(-n2cc(C(=O)N3CCC(C)CC3)c3cc(OC)c(OC)cc3c2=O)cc1`, in series [3], the EC50 is > 260 µM (inactive).

On to `Cc1ccc(/C=C/C(=O)Nc2ccc(S(=O)(=O)Nc3cc(C)nc(C)n3)cc2)cc1`, for which, in series [3], the EC50 is > 260 µM (inactive). With `COC(=O)c1cc(S(=O)(=O)N2CCN(c3ccc([N+](=O)[O-])cc3)CC2)c[nH]1`, the EC50 in series [3] was > 260 µM (inactive). In the case of `COC(=O)c1ccc(/N=C/c2c(C(F)(F)F)n[nH]c2O)cc1`, the EC50 (in series [1]; in the series on H4; in series [2]) was > 120 µM (not active) each time.

As for `CS(=O)(=O)Nc1ccc(-c2ccc3nccn3c2)cc1`, the IC50 with H9c2 is > 79 µM (inactive). As for `CC(C)C(=O)Nc1ccc(NC(=O)c2cccnc2)cn1`, on Cytochrome P450 2C19 (read-out: AC50), the AC50 is 7.08 µM (inconclusive).

With `C=CCN1C(=O)NC(=O)/C(=C(/CC)Nc2ccc3c(c2)CCC3)C1=O`, the EC50 in series [3] was > 260 µM (inactive). Regarding `CCOC(=O)c1cnc(-c2ccccc2)nc1Oc1ccc(C)cc1`, the EC50 in series [3] is > 260 µM (inactive).

Consider `O=C(CCn1c(=S)[nH]c2ccccc2c1=O)NCCCN1CCOCC1`, for which, on Cytochrome P450 3A4, the AC50 was 7.08 µM (inconclusive). For `COc1cccc(C2C(C(N)=O)=C(C)Nc3nc(-c4cccc(Cl)c4)nn32)c1` (stereo unspecified), the EC50 in series [3] is 71.9 µM (active).

Take `CCCN1CCC(=NNc2ccc(C(=O)O)cc2)CC1`: the EC50 is 30.4 µM (active) in series [1], 10.7 µM (active) with H4 and 7.27 µM (active) in series [2]. Regarding `CC1(C)Cc2nc(NCCN3CCOCC3)c(C#N)cc2CO1`, the EC50 in series [3] was > 260 µM (inactive). As to `COc1cc2[nH]c(C(=O)Nc3ccc(F)cc3)cc2c(OC)c1OC`, the values for the EC50 (in series [1]; in the series with H4; in series [2]) were 9.27 µM (active), > 120 µM (not active) and > 120 µM (not active), respectively.

For the compound `COc1cccc(NC(=O)CN(C)C(=O)Cc2nnc(O)c3ccccc23)c1`, the IC50 in the series on H9c2 is > 79 µM (inactive). Same read-out and setting: under `Cc1nc(SCC(=O)N2CCN(c3ccccc3)CC2)c2oc3ccccc3c2n1` stands > 79 µM (inactive). Regarding `Cc1ccc(S(=O)(=O)N(C)C)cc1NC(=O)COC(=O)c1c(C)noc1C`, the EC50 in series [3] was > 260 µM (inactive).

With `Cc1ccc(C(=O)NC2CCCN(c3ccc(C(F)(F)F)cn3)C2)cn1` (stereo unspecified), the EC50 in series [3] is > 260 µM (inactive).

As to `COC(=O)c1ccc(N(CC(=O)NC2CCCCC2)C(=O)CNC(=O)c2ccco2)cc1`, the EC50 in series [3] is > 260 µM (inactive). As for `CC(C)c1ccc(N2C(=O)[C@@H]3Cc4ccccc4CN3C2=O)cc1`, the EC50 in series [1] is 45 µM (active); in the series on H4 it was > 120 µM (not active); in series [2], > 120 µM (not active). As to `COc1cc2c(cc1NC(=O)CSc1nccn1C)oc1ccccc12`, the EC50 was 7.9 µM (active) in series [1], 27.6 µM (active) in the series on H4 and 13 µM (active) in series [2].

Values taken from ChEMBL document CHEMBL1201862, “PubChem BioAssay data set” (2004).
